From EP0338042B1, “COMPOSITION AND METHOD FOR TREATING HEPATITIS VIRUS INFECTIONS USING 1-(2'-DEOXY-2'-FLUORO-BETA-D-ARABINOFURANOSYL)-5-ETHYLURACIL” (priority 1987, dated 1989)

Legend:
P-815 CELLS = assay: Inhibition of thymidine incorporation into DNA; type: cell-based, rodent; settings: Mus musculus, P815; read-out: ED50 FOR INHIBITING THYMIDINE INCORPORATION INTO DNA, P-815 CELLS
[1] = system: woodchuck hepatitis virus (WHV); assay: Inhibition of WHV replication in chronically infected woodchucks (DNA polymerase activity); type: in vivo, woodchucks (Marmota monax)
Description: All woodchucks bearing chronic active hepatitis virus (Hantz, supra) were administered FMAU twice daily by interperitoneal injections of FMAU in the following dosages:
Studies were then undertaken to evaluate FMAU and FEAU in this animal model using woodchucks naturally chronically-infected with woodchuck hepatitis virus (24). It was assumed that these nucleosides would be anabolized to their nucleoside triphosphates within the animal. WHV replication was measured periodically by the endogenous DNA polymerase activity and by the detection of WHV DNA by the dot-blot hybridization assay. Three different dosages of FMAU and FEAU were investigated. FMAU at 2 mg/kg/day x 5, (given intraperitoneally TABLE VIII
In accordance with the procedures of Example 2, the FEAU inhibition of WHV replication was further studied at different doses administered orally to woodchucks through stomach tubes. Two groups of woodchucks with different initial WHV replication values were examined.
Seven woodchucks with high WHV replication were tested. High replication was defined as over 1000 counts per minute of DNA polymerase activity, and the mean replication was 1600.
Seven woodchucks with low WHV replication were tested. Low replication was defined as lower than 1000 counts per minute of DNA polymerase activity, and the mean replication was 600-800.

HSV-1(F) [2] = settings: plaque reduction in Vero cells, cited from earlier work
Vero cells = assay: Inhibition of cell growth; type: cell-based, African green monkey; settings: Chlorocebus sabaeus, read-out: ED50 FOR INHIBITING CELL GROWTH IN VERO CELLS
HL-60 CELLS = assay: Inhibition of cell growth; type: cell-based; settings: Homo sapiens, HL-60; read-out: ED50 FOR INHIBITING CELL GROWTH IN HL-60 CELLS
[3] = patients with advanced cancer, x 5; cited from earlier work
L-1210 = assay: Incorporation of 2-14C-labeled nucleoside into DNA of cells; type: cell-based, rodent; settings: FEAU also not detectable at 100 μM
Description: (§1) There was no detectable incorporation of FEAU radioactivity into the DNA of either L-1210 or Vero cell lines, but substantial amounts of FMAU radioactivity were incorporated into the DNA of both cell lines. When HSV-1 infected Vero cells were exposed to ¹⁴C-labeled FEAU and FMAU, both nucleosides incorporated into the DNA of these virus-infected cells.

L-1210 CELLS = assay: Inhibition of thymidine incorporation into DNA; type: cell-based, rodent; settings: Mus musculus, L1210; read-out: ED50 FOR INHIBITING THYMIDINE INCORPORATION INTO DNA, L-1210 CELLS
[4] = system: HSV-1 INFECTED VERO CELLS; assay: Incorporation of 2-14C-labeled nucleoside into DNA of cells; type: cell-based, African green monkey
Description: as §1

VERO = assay: as above; type: cell-based, African green monkey; settings: FEAU also not detectable at 100 μM
Description: as §1

RAT BONE MARROW CELLS = assay: Inhibition of thymidine incorporation into DNA; type: cell-based; settings: Bone marrow cell, read-out: ED50 FOR INHIBITING THYMIDINE INCORPORATION INTO DNA, RAT BONE MARROW CELLS
HSV-2(G) [5] = assay: Plaque reduction assay in Vero cells; type: cell-based; settings: monkey
Description: (§2) With FMAU as a lead compound, the syntheses of other 5-alkyl substituted 2′-fluoro-ara-uracils were undertaken (8, 9), including 1-(2′-deoxy-2′-fluoro-beta-D-arabinofuranosyl)-5-ethyluracil [FEAU].

HSV-1(F) [6] = assay: Plaque reduction assay in Vero cells; type: cell-based; settings: monkey
Description: as §2

[7] = system: simian varicella virus (SVV); assay: Simian varicella virus infection in the African green monkey
[8] = in vivo experiments with mice; cited from earlier work
HSV-2(G) [9] = settings: plaque reduction in Vero cells, cited from earlier work
HSV-2 (STRAIN G) = settings: FMAU 0.5 MG/KG/DAY, cited from earlier work
[10] = 0.2 mg/kg/day, FMAU x 5, FEAU x 10

SMILES: Cc1cn([C@@H]2O[C@H](CO)[C@@H](O)[C@@H]2F)c(=O)[nH]c1=O [FMAU, 1-(2'-deoxy-2'-fluoro-beta-D-arabinofuranosyl)-5-methyluracil, reference compound]
- EC50 (P-815 CELLS): 14000 nM
- suppression of viral replication [1, 10]: equally effective
- toxicity [1, 10]: less severe and delayed toxicity
- WHV DNA polymerase activity ([1]; 2 mg/kg/day x 5, intraperitoneally): complete suppression
- toxicity ([1]; 2 mg/kg/day x 5, intraperitoneally, eventually lethal): severe CNS toxicity
- persistence of inhibition of WHV replication after cessation of treatment ([1]; i.p. 2 mg/kg per day for 7 days or 4 mg/kg per day for 5 days): 20 to 50 days
- woodchuck hepatitis virus DNA polymerase ([1]; i.p. twice daily, 2 mg/kg per day for 7 days or 4 mg/kg per day for 5 days, end of one week following dosage administrations): fallen to background levels
- toxicity (previous results) ([1]; woodchucks, previous results): lethal toxicity
- EC50 (HSV-1(F) [2]; read-out: HSV-1(F) ED₅₀): 10 nM
- EC90 (HSV-1(F) [2]; read-out: HSV-1(F) ED₉₀): 42 nM
- EC50 (Vero cells): 2800 nM
- EC50 (HL-60 CELLS): 15400 nM
- intravenous dose with dose-limiting CNS toxicity [3]: 0.8 mg/kg/day
- neurotoxicity (Toxicity in dogs): very neurotoxic
- lethal dose (Toxicity in dogs; FMAU i.v. x 5, FEAU x 10 (preliminary)): 2.5 mg/kg/day
- INCORPORATION INTO DNA AT 10μM, L-1210 (L-1210): 0.69 p MOLE/10^6 CELLS/HR
- EC50 (L-1210 CELLS): 28000 nM
- incorporation into HSV-1-infected Vero cells compared with FEAU [4]: seven-fold greater
- INCORPORATION INTO DNA AT 10μM, HSV-1 INFECTED VERO CELLS ([4]; [2-14C] labeled nucleoside): 3.4 p MOLE/10^6 CELLS/HR
- INCORPORATION INTO DNA AT 10μM, VERO (VERO): 1.3 p MOLE/10^6 CELLS/HR
- EC50 (RAT BONE MARROW CELLS): 8900 nM
- THER. INDEX ID₅₀/ED₉₀ HSV-2 (HSV-2(G) [5]): 31
- THER. INDEX ID₅₀/ED₉₀ HSV-1 (HSV-1(F) [6]): 67
- minimal effective dose ([7]; Cercopithecine alphaherpesvirus 9, in Primates): ~0.04 mg/kg/day
- potency against SVV compared with FEAU ([7]; monkey, in vivo): about 40 fold
- toxicity [8]: relatively nontoxic
- EC50 (HSV-2(G) [9]; read-out: HSV-2(G) ED₅₀): 23 nM
- EC90 (HSV-2(G) [9]; read-out: HSV-2(G) ED₉₀): 90 nM
- MDD (HSV-2 (STRAIN G); twice a day for 4 days from 5 hr after inoculation, calculated on day 21): 9.4
- % SURVIVORS (HSV-2 (STRAIN G); twice a day for 4 days): 67%
- %WT GAIN ON DAY 7 (HSV-2 (STRAIN G); compared to day 1): 1%
- %WT GAIN ON DAY 14 (HSV-2 (STRAIN G); compared to day 1): 4%
- %WT GAIN ON DAY 21 (HSV-2 (STRAIN G); compared to day 1): 5%
- %WT GAIN ON DAY 30 (HSV-2 (STRAIN G); compared to day 1): 7%
